From patent US9427691B2, “Antimicrobial air filter” (PTI Technologies, Inc., priority 2014, dated 2016)

Columns and labels:
Type in all cases: cell-based
[1] = test system: Staphylococcus aureus (ATCC #6538); assay: quantitative test for bacterial growth on treated air filter media; settings: for # of Bacteria Recovered / % Reduction / Log Reduction (S): air filter media saturated with solution and dried, 18 hours at 37 C
Description: There are various anti-microbial agents that are available for application to the air filter media 16. […] To determine the effectiveness of an antimicrobial agent with regard to bacteria, samples of air filter media 16 were treated with various solutions of antimicrobial agents and subjected to a quantitative test. In the quantitative test for bacterial growth, an air filter media sample was saturated with a solution of an antimicrobial agent and allowed to dry. The air filter media sample was then placed in a sealed container and a 0.2 mL inoculum of Staphylococcus aureus (ATCC #6538) was placed, in microdroplets, on the surface of the air filter media sample. A solution having a 0.05% concentration of polysorbate 80 was added to the inoculum as a wetting agent. The air filter media sample was then incubated for 18 hours at a temperature of 37 C°. After incubation, 20 mL of […] broth was added to the container, and the container was shaken. The bacteria in the resulting liquid were then quantified using a series of dilution plates.

Aspergillus niger fungus = assay: antifungal test AATCC Test Method 30-2013 on treated air filter media
Description: (§1) Air filter media samples treated with the aforementioned antimicrobial solutions were then tested for antifungal properties using the common American Association of Textile Chemists and Colorists (AATCC) Test Method 30-2013. […] A larger growth-free zone indicates higher antifungal properties, and a higher surface inhibition indicates higher antifungal properties. The test was performed for both Aspergillus niger and Trichoderma virens species of fungus.

[2] = test system: Trichoderma virens fungus; assay: as above
Description: as §1

Row | SMILES | effectiveness at inhibiting bacterial growth (in words) [1] | # of Bacteria Recovered [1] | % Reduction [1] [%] | Log Reduction (S) [1] | effectiveness at inhibiting fungal growth (in words) (Aspergillus niger fungus) | Growth-Free Zone in MM (Aspergillus niger fungus; treated filter media) [MM] | Surface Inhibition (Aspergillus niger fungus; treated filter media) | effectiveness at inhibiting fungal growth (in words) [2] | Growth-Free Zone in MM ([2]; treated filter media) [MM] | Surface Inhibition ([2]; treated filter media)
1 | Cc1ccc(S(=O)(=O)C(I)I)cc1 [1% diiodomethyl-p-tolyl sulfone, diiodomethyl-p-tolyl sulfone] | most effective | <2.00 × 10^1 | >99.9 | >4.8 | did not inhibit any growth | 0 | 0 | limited in its effectiveness | 0 | 50
2 | [Cl][Ag] [2% silver chloride, silver chloride] |  | 1.81 × 10^4 | 98.6 | 1.8 |  |  |  |  |  | 
